Experimental data: article PMC3738524, “Bioenergetic and Antiapoptotic Properties of Mitochondria from Cultured Human Prostate Cancer Cell Lines PC-3, DU145 and LNCaP” (PLoS ONE, 2013)
Where two headings read alike, the source gives them in different places.

Target: T1, Complex I (NADH dehydrogenase) (Homo sapiens, UniProt P49821)
T1 construct: gene NDUFV1
Details: optimal decylubiquinone as acceptor, 30 °C, '+' printed for ±

T1 sequence (P19404 33-249): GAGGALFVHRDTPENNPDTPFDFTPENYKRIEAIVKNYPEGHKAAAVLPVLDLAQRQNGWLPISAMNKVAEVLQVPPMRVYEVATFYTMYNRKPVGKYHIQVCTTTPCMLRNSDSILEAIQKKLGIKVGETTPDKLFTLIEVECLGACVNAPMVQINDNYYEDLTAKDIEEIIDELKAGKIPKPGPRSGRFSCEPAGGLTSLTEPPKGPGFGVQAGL
T1 sequence (P28331 24-727, further chain): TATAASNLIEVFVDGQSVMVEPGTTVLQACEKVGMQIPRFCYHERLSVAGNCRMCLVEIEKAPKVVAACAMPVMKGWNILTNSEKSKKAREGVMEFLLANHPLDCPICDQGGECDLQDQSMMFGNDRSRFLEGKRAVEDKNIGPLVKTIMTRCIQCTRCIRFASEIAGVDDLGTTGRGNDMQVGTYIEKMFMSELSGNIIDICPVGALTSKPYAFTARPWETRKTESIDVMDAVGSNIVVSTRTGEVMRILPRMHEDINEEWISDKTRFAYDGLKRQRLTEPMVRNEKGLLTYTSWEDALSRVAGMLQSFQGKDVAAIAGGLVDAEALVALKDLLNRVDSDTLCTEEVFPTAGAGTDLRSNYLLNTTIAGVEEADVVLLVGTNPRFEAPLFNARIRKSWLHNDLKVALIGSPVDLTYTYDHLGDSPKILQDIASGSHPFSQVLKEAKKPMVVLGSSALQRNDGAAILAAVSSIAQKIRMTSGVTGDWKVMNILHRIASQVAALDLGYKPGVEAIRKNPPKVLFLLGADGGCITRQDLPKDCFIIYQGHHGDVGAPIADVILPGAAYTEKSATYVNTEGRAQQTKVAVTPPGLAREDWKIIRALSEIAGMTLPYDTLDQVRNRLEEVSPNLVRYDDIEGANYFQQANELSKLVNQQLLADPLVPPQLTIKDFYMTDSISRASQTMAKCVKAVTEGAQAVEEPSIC
T1 sequence (P49821 21-464): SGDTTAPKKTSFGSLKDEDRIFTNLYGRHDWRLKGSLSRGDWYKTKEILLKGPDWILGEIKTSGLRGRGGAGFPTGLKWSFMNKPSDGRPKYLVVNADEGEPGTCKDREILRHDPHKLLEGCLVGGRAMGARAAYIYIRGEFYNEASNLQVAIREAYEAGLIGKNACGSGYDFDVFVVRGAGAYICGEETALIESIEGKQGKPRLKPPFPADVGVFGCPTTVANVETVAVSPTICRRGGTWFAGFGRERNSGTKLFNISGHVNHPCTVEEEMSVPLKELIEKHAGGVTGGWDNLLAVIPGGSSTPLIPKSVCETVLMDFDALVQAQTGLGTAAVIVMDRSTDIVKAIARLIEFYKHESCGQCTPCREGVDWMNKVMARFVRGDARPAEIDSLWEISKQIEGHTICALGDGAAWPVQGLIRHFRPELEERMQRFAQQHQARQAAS

NC(=O)C1=CN([C@@H]2O[C@H](COP(=O)(O)OP(=O)(O)OC[C@H]3O[C@@H](n4cnc5c(N)ncnc54)[C@H](O)[C@@H]3O)[C@@H](O)[C@H]2O)C=CC1 [NADH]
KM^NADH (EBV-transformed normal lymphoblastoid HLB cells): 1.8+0.1 µM
KM^NADH (fibrosarcoma HT1080C cells): 5+2 µM
KM^NADH (normal prostate epithelial PrEC cells): 4+0.5 µM
KM^NADH (prostate cancer cells PC-3, DU145 and LNCaP (one common value printed)): 20+2.5 µM
